# Measured values published in patent publication US5132323A, “1,2-diaminocyclohexane-platinum complexes with antitumor activity” (Board of Regents, The University of Texas System, priority 1990, dated 1992).
# Tests used:
# L1210 = assay: In vivo antitumor therapy against L1210; set-up: species or system BDF1 mice; details: for Long-term Survivors: alive 30 days after tumor inoculation
# [1] = LD50 of DACH-Pt(II) compounds, intraperitoneal; assay type: in vivo; details: i.p., CD1 albino mice
# [2] = In vivo renal and hematological toxicity of DACH-Pt(II) compounds; set-up: species or system CD1 albino mice; WBC d.5: unit not given here; details: single i.p. LD50 dose; for Body Weight d.5 (% of day 0) / WBC d.5: day 5; for WBC d.5: mean ± S.D.
# Description: CD1 albino mice were administered a single intraperitoneal injection of the LD50 dose of each compound using 5 mice in each group. Five days later each mouse was bled under anesthesia from the axillary vessel. Blood urea nitrogen (BUN) and leucopenia were assessed for each sample.
# ^a CD1 Albino mice were administered a single i.p. injection of
# the LD50 dose of each compound (5 mice/cmpd) and bled under
# anesthesia from the axillary vessel 5 days later for blood urea nitrogen
# (BUN) measurement and assessment of leucopenia. Results as presented as […]
# L1210/cisplatin = assay: In vivo antitumor efficacy, L1210/cisplatin; set-up: species or system BDF1 mice; details: for % T/C (mean survival time treated/control × 100): mice inoculated with L1210 cells (Table 6); for % T/C: days 1, 5, 9
# Description: (§1) BDF1 mice were inoculated intraperitoneally with 10^5 L121O cells, 0.5 ml of 10% tumor brei or 10^6 M5076 cells using 5 animals in each group. Drug was administered […] on days 1, 5 and 9, except that the group infected with M5076 cells was also injected on day 13. % T/C represents mean survival time treated/mean survival time of the control times 100.
# ^a BDF1 mice were inoculated i.p. with 10^5 L1210 cells. Mic
# received 3 i.p. drug injections days 1, 5, and 9.
# (§2) ^d % T/C = (Mean Survival Time treated/Mean Survival Time control)
# (§3) ^e LTS animals alive 60 days after inoculation of L1210/0 and B16 and […]
# B16 melanoma = assay: In vivo antitumor efficacy, B16 melanoma; set-up: species or system BDF1 mice; details: for % T/C: days 1, 5, 9
# Description: as §1, §2, §3
# M5076 = assay: In vivo antitumor efficacy, M5076; set-up: species or system BDF1 mice; details: for % T/C: days 1, 5, 9, 13
# Description: as §1
# ^c BDF1 mice were inoculated i.p. with 10^6 M5076 cells. Mic
# received 4 i.p. drug injections on days 1, 5, 9 and 13.
# as §2
# ^e LTS animals alive 60 days after inoculation of L1210/0 and B16 and
# 90 days after inoculation B5076.
# [3] = system: wild-type L1210 leukemic cells; assay: In vitro cytotoxicity, growth inhibition of wild-type L1210 leukemic cells; assay type: cell-based, murine; details: 72 hours incubation
# Description: Wild-type L1210 leukemic cells were grown as a suspension culture in McCoy's 5A medium supplemented with 10% horse serum, glutamine, streptomycin and penicillin at 37° C., 95% relative humidity and 5% CO2. Four ml of cell suspension (10^5 cells/ml) were added to culture tubes and the appropriate amount of drug was added (to yield 0.01, 0.1, 1 or 10 μg/ml final concentration) to the culture tubes. After 72 hours of incubation, the cell concentration in control and experimental cultures were determined with the aid of the Coulter counter model ZBf and the percent of growth inhibition calculated.
# [4] = optimal dose 12.5 mg/kg i.p., days 1,5,9
# [5] = optimal dose 50 mg/kg i.p., day 1
# [6] = optimal dose 25 mg/kg i.p., days 1,5,9
# [7] = optimal dose 6.25 mg/kg i.p., days 1,5,9
compound,measurement,setting,value
"1,1-Cyclobutanedicarboxylato(trans-R,R-DACH)Pt(II).1 1/2H2 O [Compound 11]",Long-term Survivors,"L1210; 6.25 mg/kg i.p., days 1-9",3/6
same,% T/C,"L1210; optimal dose 6.25 mg/kg i.p., days 1-9",398%
same,% T/C,L1210; [4],140%
same,% T/C,L1210; [5],147%
same,LD50,[1],280 mg/kg
same,Survivors on d.5,[2],5/5
same,Body Weight d.5 (% of day 0),[2],121 % of day 0
same,WBC d.5,[2],3.44 ± 1.55
same,% T/C (mean survival time treated/control × 100),L1210/cisplatin,118%
same,% T/C,L1210/cisplatin; opt. dose 150 mg/kg i.p.,118%
same,% T/C (mean survival time treated/control x 100),B16 melanoma; mice inoculated with B16 cells (Table 6),104%
same,% T/C,B16 melanoma; opt. dose 50 mg/kg i.p.,104%
same,long term survivor,M5076; M5076 inoculation (Table 6),one
same,% T/C (treated/control mean survival time),M5076; mice inoculated with M5076 cells (Table 6),220%
same,% T/C,M5076; opt. dose 50 mg/kg i.p.,220%
same,LTS,"M5076; opt. dose 50 mg/kg i.p., alive 90 days after inoculation",1/5
"CCN(CC(=O)[O-])CC(=O)[O-].N[C@@H]1CCCC[C@H]1N.O.[Pt+2] (stereo in doubt) [Compound 1, N-ethyliminodiacetato(trans-R,R-DACH)Pt(II).H2 O]",ID50,[3],0.73 µg/mL
same,Long-term Survivors,"L1210; 3.15 mg/kg i.p., days 1-9",4/6
same,Long-term Survivors,"L1210; 12.5 mg/kg i.p., days 1,5,9",1/6
same,% T/C,"L1210; optimal dose 3.15 mg/kg i.p., days 1-9",434%
same,% T/C,L1210; [4],324%
same,% T/C,L1210; [5],125%
same,LD50,[1],58 mg/kg
same,Survivors on d.5,[2],5/5
same,Body Weight d.5 (% of day 0),[2],105 % of day 0
same,WBC d.5,[2],2.3 ± 0.93
same,% T/C (mean survival time treated/control × 100),L1210/cisplatin,324%
same,% T/C,L1210/cisplatin; opt. dose 12.5 mg/kg i.p.,324%
"N[C@@H]1CCCC[C@H]1N.O.O.O=C([O-])CN(O)CC(=O)[O-].[Pt+2] (stereo in doubt) [Compound 9, N-hydroxyliminodiacetato(trans-R,R-DACH)Pt(II).2H2 O]",ID50,[3],0.76 µg/mL
same,% T/C,L1210; [6],265%
same,% T/C,L1210; [5],156%
"N[C@@H]1CCCC[C@H]1N.O.O=C([O-])C1(C(=O)[O-])CC1.[Pt+2] (stereo in doubt) [Compound 14, 1,l-Cyclopropanedicarboxylato(trans-R,R-DACH)Pt(II).H2 O]",ID50,[3],0.66 µg/mL
"CN(C)CC(=O)[O-].CN(C)CC(=O)[O-].N[C@@H]1CCCC[C@H]1N.O.O.[Pt+2] (stereo in doubt) [Compound 16, Cis-bis-N,N-dimethylglycinato(trans-R,R-DACH)Pt(II).2H2 O]",ID50,[3],3.5 µg/mL
"N.N.O=C([O-])C1(C(=O)[O-])CCC1.[Pt+2] [Carboplatin, reference compound]",LD50,[1],105 mg/kg
same,Survivors on d.5,[2],5/5
same,Body Weight d.5 (% of day 0),[2],95 % of day 0
same,% T/C,L1210/cisplatin; opt. dose 90 mg/kg i.p.,121%
same,% T/C,M5076; opt. dose 40 mg/kg i.p.,150%
CCN1CC(=O)[O][Pt]2([NH]C3CCCCC3[NH]2)[O]C(=O)C1 (stereo not drawn) [Cis-EIDA],LD50,[1],140 mg/kg
same,Survivors on d.5,[2],3/5
same,Body Weight d.5 (% of day 0),[2],77 % of day 0
same,WBC d.5,[2],3.25 ± 1.01
same,% T/C,L1210/cisplatin; opt. dose 75 mg/kg i.p.,262%
"N.N.[Cl][Pt][Cl] [Cisplatin, reference compound]",% T/C,L1210/cisplatin; opt. dose 5 mg/kg i.p.,94%
same,% T/C,B16 melanoma; opt. dose 3 mg/kg i.p.,139%
same,% T/C,M5076; opt. dose 3 mg/kg i.p.,200%
"CCCN(CC(=O)[O-])CC(=O)[O-].N[C@@H]1CCCC[C@H]1N.O.O.[Pt+2] [Compound 2, N-propyliminodiacetato(trans-R,R-DACH)Pt(II).2H2 O]",ID50,[3],0.75 µg/mL
same,% T/C,"L1210; optimal dose 56 mg/kg i.p., day 1",129%
"CCCCN(CC(=O)[O-])CC(=O)[O-].N[C@@H]1CCCC[C@H]1N.O.O.[Pt+2] [Compound 3, N-butyliminodiacetato(trans-R,R-DACH)Pt(II).2H2 O]",ID50,[3],0.74 µg/mL
same,Long-term Survivors,"L1210; 12.5 mg/kg i.p., days 1,5,9",2/6
same,% T/C,"L1210; optimal dose 12.5 mg/kg i.p., day 1",147%
same,% T/C,L1210; [4],318%
"CCCCCN(CC(=O)[O-])CC(=O)[O-].N[C@@H]1CCCC[C@H]1N.O.[Pt+2] [Compound 4, N-amyliminodiacetato(trans-R,R-DACH)Pt(II).H2 O]",ID50,[3],3.00 µg/mL
same,Long-term Survivors,"L1210; 25 mg/kg i.p., days 1,5,9",2/6
same,% T/C,L1210; [6],227%
same,% T/C,L1210; [5],158%
"CC(C)CCN(CC(=O)[O-])CC(=O)[O-].N[C@@H]1CCCC[C@H]1N.[Pt+2] [Compound 6, N-isoamyliminodiacetato(trans-R,R-DACH)Pt(II)]",% T/C,L1210; [4],150%
same,% T/C,L1210; [5],145%
"CCC(C)N(CC(=O)[O-])CC(=O)[O-].N[C@@H]1CCCC[C@H]1N.O.O.[Pt+2] (stereo not drawn) [Compound 7, N-sec-butyliminodiacetato(trans-R,R-DACH)Pt(II).2H2 O]",ID50,[3],0.65 µg/mL
same,Long-term Survivors,"L1210; 6.25 mg/kg i.p., days 1,5,9",2/6
same,% T/C,L1210; [7],282%
"CC(C)(C)N(CC(=O)[O-])CC(=O)[O-].N[C@@H]1CCCC[C@H]1N.O.O.O.[Pt+2] [Compound 8, N-ter-butyliminodiacetato(trans-R,R-DACH)Pt(II).3H2 O]",Long-term Survivors,"L1210; 6.25 mg/kg i.p., days 1,5,9",1/6
same,% T/C,L1210; [7],271%
"CC(=CC(=O)[O-])C(=O)[O-].NC1CCCCC1N.O.[Pt+2] [Compound 10, Citraconato(trans-R,R-DACH)Pt(II).1H2 O]",ID50,[3],5.00 µg/mL
same,% T/C,L1210; [6],200%
"CCN1CC(=O)[O][Pt]2([NH]C3CCCCC3[NH]2)[O]C(=O)C1 (stereo not shown) [S,S-EIDA]",LD50,[1],95 mg/kg
same,Survivors on d.5,[2],5/5
same,Body Weight d.5 (% of day 0),[2],100 % of day 0
same,WBC d.5,[2],2.63 ± 0.96
same,% T/C,L1210/cisplatin; opt. dose 25 mg/kg i.p.,344%
"Cis-bis-galacturonato(trans-R,R-DACH)Pt(II).2H2 O [Compound 15]",ID50,[3],0.90 µg/mL
same,% T/C,L1210; [4],238%
"N-isopropyliminodiacetato(trans-R,R-DACH)Pt(II).2H2 O [Compound 5]",ID50,[3],0.85 µg/mL
same,Long-term Survivors,"L1210; 12.5 mg/kg i.p., days 1,5,9",1/6
same,% T/C,L1210; [4],324%
same,% T/C,L1210; [5],155%
